Assay results as given in US11884675B2, “Heterocyclic compounds as triggering receptor expressed on myeloid cells 2 agonists and methods of use” (AMGEN INC., priority 2020, dated 2024).

target: hTREM2 (Homo sapiens, UniProt Q9NZC2); test: TREM2 activity by cellular Syk phosphorylation (AlphaScreen/AlphaLISA) in TREM2/DAP12-HEK cells, used for Examples 1-305; type: cell-based; set-up: expressed in transfected cells; details: HEK293 Cells
Procedure, shortened: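 Phospho-Syk (Tyr525/526) over total Syk quantified by AlphaScreen in lysates of cloned TREM2/DAP12-overexpressing HEK293 cells after 45 min compound treatment at room temperature, 1% final DMSO. Values expressed relative to 100 nM anti-TREM2 antibody (positive) and isotype IgG (negative) controls; curves fitted with 4-parameter logistic model.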

Sequence of hTREM2 (Q9NZC2 19-230): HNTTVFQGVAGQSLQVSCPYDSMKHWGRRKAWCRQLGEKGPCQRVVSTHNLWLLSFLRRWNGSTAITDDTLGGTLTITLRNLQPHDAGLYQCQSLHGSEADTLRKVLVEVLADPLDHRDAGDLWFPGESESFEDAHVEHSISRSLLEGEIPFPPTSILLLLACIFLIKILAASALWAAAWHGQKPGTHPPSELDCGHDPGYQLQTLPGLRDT
Sequence of hTREM2 (O43914 22-113 partner): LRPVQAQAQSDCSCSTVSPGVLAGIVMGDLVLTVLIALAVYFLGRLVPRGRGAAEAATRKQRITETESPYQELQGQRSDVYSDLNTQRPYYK

SMILES	EC50 [nM]	hTREM2 Emax
Cc1ccc(-c2nc([C@@H]3CCO[C@H](c4cnn(C)c4)C3)nc3nc(C)c(C)cc23)c(F)c1 (single isomer, unassigned) [Example 202]	500 to 3000	++ (Emax>100 and ≤150)
Cc1nc2nc([C@H]3CCO[C@H](c4cnn(C)c4)C3)cc(-c3ccc(Cl)cc3F)c2nc1C (single isomer, unassigned) [Example 186]	500 to 3000	+++ (Emax>150 and ≤250)
Cc1cnc2c(-c3ccc(F)cc3F)nc(N3CCO[C@H]([C@@H]4CCOC4)C3)nc2n1 [Example 253, (R)-4-(4-(2,4-difluorophenyl)-7-methylpteridin-2-yl)-2-((R)-tetrahydrofuran-3-yl)morpholine]	3000 to 100000	+++ (Emax>150 and ≤250)
Cc1ccc2c(n1)nc(N1CCO[C@@H](c3cnn(C)c3)C1)nc2[C@H]1C[C@@H](C(F)(F)F)C1 [Example 275, (S)-2-(1-methyl-1H-pyrazol-4-yl)-4-(7-methyl-4-((1s,3R)-3-(trifluoromethyl)cyclobutyl)pyrido[2,3-d]pyrimidin-2-yl)morpholine]	3000 to 100000	+ (Emax>45 and ≤100)
Cn1cc([C@H]2CN(c3cc4nccnc4c(-c4ccc(Cl)cc4F)n3)CCO2)cn1 [Example 233, (S)-4-(5-(4-chloro-2-fluorophenyl)pyrido[3,4-b]pyrazin-7-yl)-2-(1-methyl-1H-pyrazol-4-yl)morpholine]	3000 to 100000	+++ (Emax>150 and ≤250)
Cc1nc2nc([C@H]3CCO[C@H](c4cnn(C)c4)C3)nc(-c3ccc(F)cc3F)c2nc1C [Example 263, 4-(2,4-difluorophenyl)-6,7-dimethyl-2-((2S,4S)-2-(1-methyl-1H-pyrazol-4-yl)tetrahydro-2H-pyran-4-yl)pteridine]	500 to 3000	+++ (Emax>150 and ≤250)
Cc1nc2cc([C@H]3C[C@@H](C)O[C@@H](c4cnn(C)c4)C3)nc(-c3ccc(Cl)cc3F)c2nc1C (single isomer, unassigned) [Example 230]	50 to 500	++++ (Emax>250)
Cc1cc([C@H]2CN(c3cc(-c4ccc(F)cc4F)c4cnc(C)nc4c3)CCO2)ccn1 [Example 154, 5-(2,4-difluorophenyl)-2-methyl-7-((2S)-2-(2-methyl-4-pyridinyl)-4-morpholinyl) quinazoline]	50 to 500	++++ (Emax>250)
Cc1nc2nc(N3CCO[C@@H](c4cnn(C)c4)C3)nc([C@H]3C[C@H](C(F)F)C3)c2nc1C [Example 45, 4-(trans-3-(difluoromethyl)cyclobutyl)-6,7-dimethyl-2-((2S)-2-(1-methyl-1H-pyrazol-4-yl)-4-morpholinyl)pteridine]	50 to 500	++ (Emax>100 and ≤150)
Cc1nc2nc([C@@H]3CCO[C@@H](c4cnn(C)c4)C3)nc([C@H]3C[C@H](C(F)(F)F)C3)c2nc1C (single isomer, unassigned) [Example 204]	500 to 3000	++++ (Emax>250)
Cc1ccc2c(-c3ccc(F)cc3F)nc(N3CCO[C@@H](c4cnn(C)c4)C3)nc2n1 [Example 91, 4-(2,4-difluorophenyl)-7-methyl-2-((2S)-2-(1-methyl-1H-pyrazol-4-yl)-4-morpholinyl)pyrido[2,3-d]pyrimidine]	50 to 500	+++ (Emax>150 and ≤250)
Cc1nc2nc(N3CCO[C@@H](c4cnn(C)c4)C3)nc(C3CCCC3)c2nc1C [Example 140, 4-cyclopentyl-6,7-dimethyl-2-((2S)-2-(1-methyl-1H-pyrazol-4-yl)-4-morpholinyl)pteridine]	50 to 500	++ (Emax>100 and ≤150)
Cc1ccc2c(n1)nc(N1CCO[C@@H](c3cnn(C)c3)C1)nc2[C@H]1CC[C@@H](C(F)(F)F)CC1 [Example 142, 7-methyl-2-((2S)-2-(1-methyl-1H-pyrazol-4-yl)-4-morpholinyl)-4-(cis-4-(trifluoromethyl)cyclohexyl)pyrido [2,3-d]pyrimidine]	3000 to 100000	++ (Emax>100 and ≤150)

The remaining lines, values ahead:

EC50 [nM]	hTREM2 Emax	SMILES
50 to 500	+++ (Emax>150 and ≤250)	Cc1nc2nc(N3CCO[C@@H](c4cnn(C)c4)C3)nc([C@H]3C[C@@H](C(F)F)C3)c2nc1C [Example 44, 4-(cis-3-(difluoromethyl)cyclobutyl)-6,7-dimethyl-2-((2S)-2-(1-methyl-1H-pyrazol-4-yl)-4-morpholinyl)pteridine]
≤ 50	+ (Emax>45 and ≤100)	Cc1ccc2c(n1)nc(N1CCO[C@@H](c3cnn(C4CC4)c3)C1)nc2[C@H]1CC[C@H](C(F)(F)F)CC1 [Example 145, 2-((2S)-2-(1-cyclopropyl-1H-pyrazol-4-yl)-4-morpholinyl)-7-methyl-4-(trans-4-(trifluoromethyl)cyclohexyl)pyrido [2,3-d]pyrimidine]
≤ 50	++++ (Emax>250)	Cc1cc2c(-c3ccc(Cl)cc3F)nc(N3CCO[C@@H](c4cnn(C)c4)C3)nc2nc1C [Example 103, 4-(4-chloro-2-fluorophenyl)-6,7-dimethyl-2-((2S)-2-(1-methyl-1H-pyrazol-4-yl)-4-morpholinyl)pyrido[2,3-d]pyrimidine]
50 to 500	++++ (Emax>250)	Cc1cnc2cc(N3CCO[C@@H](c4cnn(C)c4)C3)nc(-c3ccc(Cl)cc3F)c2n1 [Example 74, 5-(4-chloro-2-fluorophenyl)-3-methyl-7-((2S)-2-(1-methyl-1H-pyrazol-4-yl)-4-morpholinyl)pyrido[3,4-b]pyrazine]
≤ 50	+++ (Emax>150 and ≤250)	Cc1cc([C@H]2CN(c3nc(C45CC(C(F)(F)F)(C4)C5)c4nc(C)c(C)nc4n3)CCO2)ccn1 [Example 65]
≤ 50	++++ (Emax>250)	Cc1nc2nc(N3CCO[C@@H](c4cnn(C)c4)C3)nc(-c3ccc(C(F)(F)F)cc3F)c2nc1C [Example 17, 4-(2-fluoro-4-(trifluoromethyl)phenyl)-6,7-dimethyl-2-((2S)-2-(1-methyl-1H-pyrazol-4-yl)-4-morpholinyl)pteridine]
≤ 50	+++ (Emax>150 and ≤250)	Cc1nc2nc(N3CCO[C@@H](c4cnn(C)c4)C3)nc(C3CCC(F)(F)CC3)c2nc1C [Example 133, 4-(4,4-difluorocyclohexyl)-6,7-dimethyl-2-((2S)-2-(1-methyl-1H-pyrazol-4-yl)-4-morpholinyl)pteridine]
≤ 50	++++ (Emax>250)	Cc1cc([C@H]2C[C@@H](c3nc(-c4ccc(F)cc4F)c4nc(C)c(C)nc4n3)CCO2)ccn1 (single isomer, unassigned) [Example 211]
≤ 50	++++ (Emax>250)	Cc1cc2c(-c3ccc(Cl)cc3F)cc(N3CCO[C@@H](c4cnn(C)c4)C3)nc2nc1C [Example 157, 5-(4-chloro-2-fluorophenyl)-2,3-dimethyl-7-((2S)-2-(1-methyl-1H-pyrazol-4-yl)-4-morpholinyl)-1,8-naphthyridine]
≤ 50	+ (Emax>45 and ≤100)	Cc1cnc2c(n1)nc(N1CCO[C@@H](c3cnn(C4CC4)c3)C1)nc2[C@H]1C[C@H](C(F)(F)F)C1 [Example 13, 2-((2S)-2-(1-cyclopropyl-1H-pyrazol-4-yl)-4-morpholinyl)-7-methyl-4-(trans-3-(trifluoromethyl)cyclobutyl)pteridine]
50 to 500	+++ (Emax>150 and ≤250)	Cc1nc2nc(N3CC[C@H](C(F)F)C3)nc(-c3ccc(Cl)cc3F)c2nc1C [Example 247, (S)-4-(4-chloro-2-fluorophenyl)-2-(3-(difluoromethyl)pyrrolidin-1-yl)-6,7-dimethylpteridine]
≤ 50	++ (Emax>100 and ≤150)	Cc1nc2nc(N3CCO[C@@H](c4cnn(C5CC5)c4)C3)nc([C@H]3C[C@H](C(F)F)C3)c2nc1C [Example 48, 2-((2S)-2-(1-cyclopropyl-1H-pyrazol-4-yl)-4-morpholinyl)-4-(trans-3-(difluoromethyl)cyclobutyl)-6,7-dimethylpteridine]
50 to 500	+++ (Emax>150 and ≤250)	Cc1ccc2c(-c3ccc(Cl)cc3F)nc(N3CCO[C@@H](c4cnc(C)nc4)C3)nc2n1 (single isomer, unassigned) [Example 90]
≤ 50	+++ (Emax>150 and ≤250)	Cc1nc2nc(N3CCC(F)(F)[C@@H](c4cnn(C)c4)C3)nc(-c3ccc(Cl)cc3F)c2nc1C (single isomer, unassigned) [Example 123]
≤ 50	++ (Emax>100 and ≤150)	Cc1cc([C@H]2CN(c3nc4nc(C)c(C)nc4c([C@H]4C[C@@H](C(F)F)C4)n3)CCO2)ccn1 [Example 53, 4-(cis-3-(difluoromethyl)cyclobutyl)-6,7-dimethyl-2-((2S)-2-(2-methyl-4-pyridinyl)-4-morpholinyl)pteridine]
≤ 50	++ (Emax>100 and ≤150)	Cc1cc([C@H]2CN(c3nc4nc(C)c(C)nc4c([C@H]4C[C@H](C(F)F)C4)n3)CCO2)ccn1 [Example 54, 4-(trans-3-(difluoromethyl)cyclobutyl)-6,7-dimethyl-2-((2S)-2-(2-methyl-4-pyridinyl)-4-morpholinyl)pteridine]
≤ 50	++ (Emax>100 and ≤150)	Cc1nc2nc(N3CCO[C@@H](c4cnn(C)c4)C3)nc([C@H]3C[C@H](C(F)(F)F)C3)c2nc1C [Example 42, 6,7-dimethyl-2-((2S)-2-(1-methyl-1H-pyrazol-4-yl)-4-morpholinyl)-4-(trans-3-(trifluoromethyl)cyclobutyl)pteridine]
≤ 50	++++ (Emax>250)	Cc1ccc2c(-c3ccc(Cl)cc3F)nc([C@H]3CCO[C@@H](c4cnn(C5CC5)c4)C3)nc2n1 (single isomer, unassigned) [Example 197]
